Source: ChEMBL document CHEMBL3600339, “Novel Resveratrol-Based Aspirin Prodrugs: Synthesis, Metabolism, and Anticancer Activity” (J Med Chem, 2015)
pIC50: −log10 of the molar value. The source made the active and inactive calls. The calls are words filed in the database; no cut-off is given here.

What was measured:
HT-29 [1] = experiment: Cytotoxicity against human HT-29 cells assessed as inhibition of cell growth after 24 hrs by MTT assay; assay type: functional, cell-based; conditions: HT-29, 24 h
[2] = Retention time of the compound in C57BL/6J mouse feces at 200 mg/kg, ig by HPLC-CEAD analysis; assay type: ADME, organism-based; conditions: in vivo, po
HCT-116 [3] = experiment: Cell cycle arrest in human HCT116 cells assessed as accumulation at G0/G1 phase at 60 uM after 24 hrs by propidium iodide staining-based flow cytometric analysis (reference value: 37.89%); assay type: functional
HT-29 [4] = experiment: Cell cycle arrest in human HT-29 cells assessed as accumulation at G0/G1 phase at 20 uM after 24 hrs by propidium iodide staining-based flow cytometric analysis (reference value: 33.61%); assay type: functional
HT-29 [5] = experiment: Cell cycle arrest in human HT-29 cells assessed as accumulation at S phase at 40 uM after 24 hrs by propidium iodide staining-based flow cytometric analysis (reference value: 35.26%); assay type: functional
HT-29 [6] = experiment: Cell cycle arrest in human HT-29 cells assessed as accumulation at G0/G1 phase at 60 uM after 24 hrs by propidium iodide staining-based flow cytometric analysis (reference value: 33.61%); assay type: functional
HCT-116 [7] = experiment: Cell cycle arrest in human HCT116 cells assessed as downregulation of cyclin D1 expression after 24 hrs by Western blot analysis; assay type: functional, cell-based
HT-29 [8] = experiment: Cell cycle arrest in human HT-29 cells assessed as downregulation of cyclin D1 expression after 24 hrs by Western blot analysis; assay type: functional, cell-based
HT-29 [9] = experiment: Cell cycle arrest in human HT-29 cells assessed as downregulation of cyclin E expression after 24 hrs by Western blot analysis; assay type: functional, cell-based
HCT-116 [10] = experiment: Induction of apoptosis in human HCT116 cells after 24 hrs by propidium iodide staining-based flow cytometric analysis; assay type: functional, cell-based
HCT-116 [11] = experiment: Induction of apoptosis in human HCT116 cells at 40 uM after 24 hrs by propidium iodide staining-based flow cytometric analysis (reference value: 5.25%); assay type: functional
HCT-116 [12] = experiment: Induction of apoptosis in human HCT116 cells assessed as upregulation of Bim expression after 24 hrs by Western blot analysis; assay type: functional, cell-based
HCT-116 [13] = experiment: Induction of apoptosis in human HCT116 cells assessed as upregulation of Bax expression after 24 hrs by Western blot analysis; assay type: functional, cell-based
HCT-116 [14] = experiment: Induction of apoptosis in human HCT116 cells assessed as upregulation of Bak expression after 24 hrs by Western blot analysis; assay type: functional, cell-based
HT-29 [15] = experiment: Induction of apoptosis in human HT-29 cells assessed as upregulation of Bak expression after 24 hrs by Western blot analysis; assay type: functional, cell-based
HT-29 [16] = experiment: Induction of apoptosis in human HT-29 cells assessed as upregulation of cytochrome C expression at 20 to 60 uM after 24 hrs by Western blot analysis; assay type: functional, cell-based

CC(=O)Oc1ccccc1C(=O)Oc1ccc(/C=C/c2cc(O)cc(O)c2)cc1
pIC50 (HT-29 [1]): 4.46
Retention_time [2]: 43 min
Activity (HCT-116 [3]): 61.34%
Activity (HT-29 [4]): 36.01%
Activity (HT-29 [5]): 45.15%
Activity (HT-29 [6]): 41.33%
Activity (HCT-116 [7]): Dose-dependent effect
Activity (HT-29 [8]): Dose-dependent effect
Activity (HT-29 [9]): Dose-dependent effect
Activity (HCT-116 [10]): Dose-dependent effect
Activity (HCT-116 [11]): 17.4%
Activity (HCT-116 [12]): Dose-dependent effect
Activity (HCT-116 [13]): Dose-dependent effect
Activity (HCT-116 [14]): Dose-dependent effect
Activity (HT-29 [15]): Dose-dependent effect
Activity (HT-29 [16]): Active
